Reference: patent US20080027042A1, “Novel Aminopyridine Derivatives Having Aurora a Selective Inhibitory Action” (priority 2004, published 2008)
pIC50: −log10 of the molar value. Where a name gives a salt, the structure may show the parent alone.

Tests used:
Aurora A = molecular target: T1, Aurora A (Homo sapiens, UniProt O14965); experiment: Aurora A inhibitory action (33P-ATP kinase assay, Kemptide substrate); format: biochemical; conditions: 20 μM ATP, 30° C., 20 minutes
T1 construct: histidine tag (N); made in house; host or cells: Escherichia coli BL21-CodonPlus(DE3)-RIL
T1 sequence (O14965 1-403): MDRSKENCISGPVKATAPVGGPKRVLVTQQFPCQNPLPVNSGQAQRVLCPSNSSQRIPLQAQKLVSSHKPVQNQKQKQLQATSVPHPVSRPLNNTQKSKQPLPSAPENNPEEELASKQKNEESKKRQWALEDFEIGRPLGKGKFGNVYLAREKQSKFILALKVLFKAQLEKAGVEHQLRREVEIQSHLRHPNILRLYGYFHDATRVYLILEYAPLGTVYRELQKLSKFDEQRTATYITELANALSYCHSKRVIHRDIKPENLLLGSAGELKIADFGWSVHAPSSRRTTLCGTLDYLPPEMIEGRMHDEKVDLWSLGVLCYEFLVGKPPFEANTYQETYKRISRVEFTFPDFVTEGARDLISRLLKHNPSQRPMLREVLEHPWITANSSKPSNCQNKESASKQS
Excerpt: Aurora A Inhibitory Action
(1) Purification of Aurora A
(§1) cDNA of Aurora A having histidine tag fused at the amino terminal was integrated into an expression vector, which was then highly expressed in Escherichia coli BL2 1-CodonPlus(DE3)-RIL cells. The Escherichia coli cells were recovered and solubilized, and then the histidine-tagged Aurora A protein was adsorbed onto a nickel chelate column and eluted from the column with imidazole. The active fraction was desalted with a desalting column to give a pure enzyme.
(2) Measurement of Activity of Aurora A
For measurement of the activity of Aurora A, the substrate used was Kemptide (Lys-Arg-Arg-Ala-Ser-Lys-Gly) (SEQ.ID.NO.: 1), a synthetic peptide purchased from Sigma-Aldrich, Inc. [Certificate of analysis (Upstate, Inc.)].
Reaction was conducted by a partial modification of a method by Upstate, Inc. [Kinase Profiler™ Assay Protocols]. The amount of the reaction liquid was 21.1 μL, and the composition of the reaction buffer (R2 buffer) was 50 mM Tris-hydrochloride buffer (pH 7.4)/15 mM magnesium acetate/0.2 mM ethylenediamine-N,N,N′,N′-tetraacetate (EDTA). To this, purified Aurora A, 100 μM of a substrate peptide, 20 μM of unlabeled adenosine triphosphate (ATP) and 0.5 μCi of [γ-^33P] labeled ATP (2,500 Ci/mmole or more) were added, and the mixture was reacted at 30° C. for 20 minutes. Then, 10 μL of 350 mM phosphate buffer was added to the reaction system to stop the reaction. The substrate peptide was adsorbed on a P81 paper filter 96-well plate and then washed with 130 mM phosphate buffer for several times. The radiation activity of the peptide was measured with a liquid scintillation counter. The [γ-^33P] labeled ATP was purchased from Amersham Biosciences Co., Ltd.
(§2) The compound to be tested was added to the reaction system such that a dilution series of the compound in dimethylsulfoxide was first prepared, and 1.1 μL of this solution was added. A control was provided by adding 1.1 μL of DMSO to the reaction system.

Aurora B = molecular target: T2, Aurora B (Homo sapiens, UniProt Q96GD4); experiment: Aurora B inhibitory action (33P-ATP kinase assay, Kemptide substrate); format: biochemical; conditions: 100 μM ATP, 30° C., 20 minutes
T2 construct: histidine tag (N); made in house; host or cells: Escherichia coli BL21-CodonPlus(DE3)-RIL
T2 sequence (Q96GD4 whole entry): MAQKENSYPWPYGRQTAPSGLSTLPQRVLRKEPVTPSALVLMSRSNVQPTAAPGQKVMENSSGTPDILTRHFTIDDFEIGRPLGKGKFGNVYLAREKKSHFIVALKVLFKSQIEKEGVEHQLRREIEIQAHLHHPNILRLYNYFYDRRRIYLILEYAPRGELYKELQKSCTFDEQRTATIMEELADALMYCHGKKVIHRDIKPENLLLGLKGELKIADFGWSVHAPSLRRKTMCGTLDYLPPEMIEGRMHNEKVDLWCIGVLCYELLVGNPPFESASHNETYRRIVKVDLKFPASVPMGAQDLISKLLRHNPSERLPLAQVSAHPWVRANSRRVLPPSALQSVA
Excerpt: Aurora B Inhibitory Action
(1) Purification of Aurora B
as §1, with “of Aurora B having histidine” for “of Aurora A having histidine”, “Escherichia coli BL21-CodonPlus(DE3)-RIL cells. The” for “Escherichia coli BL2 1-CodonPlus(DE3)-RIL cells. The”
(2) Measurement of Activity of Aurora B
For measurement of the activity of Aurora B, the substrate used was Kemptide (Lys-Arg-Arg-Ala-Ser-Lys-Gly) (SEQ.ED.NO.: 1), a synthetic peptide purchased from Sigma-Aldrich, Inc. [Certificate of analysis (Upstate, Inc.)].
Reaction was conducted by a partial modification of the method of activity measurement for Aurora A. The amount of the reaction liquid was 21.1 μL, and the composition of the reaction buffer (R2 buffer) was 50 mM Tris-hydrochloride buffer (pH 7.4)/15 mM magnesium acetate/0.2 mM ethylenediamine-N,N,N′,N′-tetraacetate (EDTA). To this, purified Aurora B, 100 μM of a substrate peptide, 100 μM of unlabeled adenosine triphosphate (ATP) and 1 μCi of [γ-^33P] labeled ATP (2,500 Ci/mmole or more) were added, and the mixture was reacted at 30° C. for 20 minutes. Then, 10 μL of 350 mM phosphate buffer was added to the reaction system to stop the reaction. The substrate peptide was adsorbed on a P81 paper filter 96-well plate and then washed with 130 mM phosphate buffer for several times. The radiation activity of the peptide was measured with a liquid scintillation counter. The [γ-^33P] labeled ATP was purchased from Amersham Biosciences Co., Ltd.
as §2

| Compound | pIC50 (Aurora A) | pIC50 (Aurora B) |
| --- | --- | --- |
| N#Cc1cnc(Nc2cccc(CN3CCN(C(=O)c4cccc(Cl)c4F)CC3)n2)s1 [Example 43] | 8.96 | 6.34 |
| O=C(c1cccc(Cl)c1Cl)N1CCN(Cc2cncc(Nc3cc[nH]n3)n2)CC1 [Example 45, 6-((4-(2,3-dichlorobenzoyl)piperazin-1-yl)methyl)-N-1H-pyrazol-3-ylpyrazin-2-amine] | 8.60 | 5.32 |
| O=C(c1cccc(C(F)(F)F)c1F)N1C[C@@H]2C[C@H]1CN2Cc1cncc(Nc2cc[nH]n2)n1 [Example 47, 6-(((lS,4S)-5-(2-fluoro-3-(trifluoromethyl)benzoyl)-2,5-diazabicyclo[2.2.1]hept-2-yl)methyl)-N-1H-pyrazol-3-ylpyrazin-2-amine] | 8.26 | 5.66 |
| O=C(c1cccc(C(F)(F)F)c1F)N1C[C@H]2C[C@@H]1CN2Cc1cncc(Nc2cc[nH]n2)n1 [Example 48, 6-(((1R,4R)-5-(2-fluoro-3-(trifluoromethyl)benzoyl)-2,5-diazabicyclo[2.2.1]hept-2-yl)methyl)-N-1H-pyrazol-3-ylpyrazin-2-amine] | 8.55 | 5.54 |
| O=C(c1cccc(Br)c1F)N1CCN(Cc2cncc(Nc3cc[nH]n3)n2)CC1 [Example 49, 6-((4-(3-bromo-2-fluorobenzoyl)piperazin-1-yl)methyl)-N-1H-pyrazol-3-ylpyrazin-2-amine trifluoroacetate] | 8.85 | 5.36 |
| O=C(c1cccc(C(F)(F)F)c1Cl)N1CCN(Cc2cncc(Nc3cc[nH]n3)n2)CC1 [Example 51, 6-((4-(2-chloro-3-(trifluoromethyl)benzoyl)piperazin-1-yl)methyl)-N-1H-pyrazol-3-ylpyrazin-2-amine trifluoroacetate] | 9.01 | 6.03 |
| O=C(c1cccc(C(F)(F)F)c1F)N1CCN(Cc2cncc(Nc3cc[nH]n3)n2)CC(O)C1 (stereo not shown) [Example 55, 6-((4-(2-fluoro-3-(trifluoromethyl)benzoyl)-6-hydroxy-1,4-diazepan-1-yl)methyl)-N-1H-pyrazol-3-ylpyrazin-2-arnine] | 7.70 | 5.13 |
| O=C(c1cccc(C(F)(F)F)c1F)N1CCN(Cc2cncc(Nc3ncns3)n2)CC1 [Example 57, 6-((4-(2-fluoro-(3-trifluoromethyl)benzoyl)piperazin-1-yl)methyl)-N-1,2,4-thiadiazol-5-ylpyrazin-2-amine] | 7.82 | 4.55 |
| O=C(c1ccoc1)N1CCN(Cc2cccc(Nc3ncc(Cl)s3)n2)CC1 [Example 61, 6-((4-(3-furoyl)piperazin-1-yl)methyl)-N-(5-chlorothiazol-2-yl)pyridin-2-amine] | 7.77 | 6.28 |
| O=C(c1cccc(Cl)c1F)N1CCCN(Cc2cccc(Nc3nccs3)n2)CC1 [Example 63, 6-((4-(3-chloro-2-fluorobenzoyl)-1,4-diazepan-1-yl)methyl)-N-thiazol-2-ylpyridin-2-amine] | 8.89 | 6.24 |
| O=C(c1cnccn1)N1CCN(Cc2cccc(Nc3ncc(Cl)s3)n2)CC1 [Example 64, 6-((4-(pyrazin-2-ylcarbonyl)piperazin-1-yl)methyl)-N-(5-chlorothiazol-2-yl)pyridin-2-amine] | 6.96 | 5.60 |
| O=C(c1ccsc1)N1CCN(Cc2cccc(Nc3ncc(Cl)s3)n2)CC1 [Example 65, 6-((4-(3-thienylcarbonyl)piperazin-1-yl)methyl)-N-(5-chlorothiazol-2-yl)pyridin-2-amine] | 8.62 | 6.80 |
| O=C(c1nccs1)N1CCN(Cc2cccc(Nc3ncc(Cl)s3)n2)CC1 [Example 67, 6-((4-(thiazol-2-ylcarbonyl)piperazin-1-yl)methyl)-N-(5-chlorothiazol-2-yl)pyridin-2-amine] | 7.77 | 6.49 |
| Cn1ccc(C(=O)N2CCN(Cc3cccc(Nc4ncc(Cl)s4)n3)CC2)n1 [Example 69, 6-((4-((1-methyl-1H-pyrazol-3-yl)carbonyl)piperazin-1-yl)methyl)-N-(5-chlorothiazol-2-yl)pyridin-2-amine] | 7.49 | 6.04 |
| N#Cc1ccccc1C(=O)N1CCN(Cc2cccc(Nc3ncc(Cl)s3)n2)CC1 [Example 70, 6-((4-(2-cyanobenzoyl)piperazin-1-yl)methyl)-N-(5-chlorothiazol-2-yl)pyridin-2-amine] | 8.62 | 7.02 |
| CC(=O)Nc1cccc(C(=O)N2CCN(Cc3cccc(Nc4ncc(Cl)s4)n3)CC2)c1 [Example 72, 6-((4-(3-(acetylamino)benzoyl)piperazin-1-yl)methyl)-N-(5-chlorothiazol-2-yl)pyridin-2-amine] | 7.57 | 6.77 |
| CS(=O)(=O)c1cccc(C(=O)N2CCN(Cc3cccc(Nc4ncc(Cl)s4)n3)CC2)c1 [Example 74, 6-((4-(3-(methanesulfonyl)benzoyl)piperazin-1-yl)methyl)-N-(5-chlorothiazol-2-yl)pyridin-2-amine] | 7.33 | 6.07 |
| O=C(c1cccc(Cl)c1Cl)N1CCN(Cc2cccc(Nc3ncc(Cl)s3)n2)CC1 [Example 76, 6-((4-(2,3-dichlorobenzoyl)piperazin-1-yl)methyl)-N-(5-chlorothiazol-2-yl)pyridin-2-amine] | 9.36 | 7.33 |
| O=C(c1cccnc1F)N1CCN(Cc2cccc(Nc3ncc(Br)s3)n2)CC1 [Example 78, 6-((4-((2-fluoropyridin-3-yl)carbonyl)piperazin-1-yl)methyl)-N-(5-bromothiazol-2-yl)pyridin-2-amine] | 8.70 | 6.62 |
| O=C(c1ccnc(F)c1)N1CCN(Cc2cccc(Nc3ncc(Br)s3)n2)CC1 [Example 79, 6-((4-(2-fluoroisonicotinoyl)piperazin-1-yl)methyl)-N-(5-bromothiazol-2-yl)pyridin-2-amine] | 7.59 | 5.66 |
| O=C(c1cccc(Cl)c1F)N1CCN(Cc2cc(Br)cc(Nc3nccs3)n2)CC1 [Example 81, 4-bromo-6-((4-(3-chloro-2-fluorobenzoyl)piperazin-1-yl)methyl)-N-thiazol-2-ylpyridin-2-amine] | 9.48 | 6.52 |
| COC(=O)c1cc(CN2CCN(C(=O)c3cccc(Cl)c3F)CC2)nc(Nc2nccs2)c1 [Example 82, methyl 2-((4-(3-chloro-2-fluorobenzoyl)piperazin-1-yl)methyl)-6-(thiazol-2-ylamino)isonicotinate] | 9.29 | 6.68 |
| O=C(O)c1cc(CN2CCN(C(=O)c3cccc(Cl)c3F)CC2)nc(Nc2nccs2)c1 [Example 83, 2-((4-(3-chloro-2-fluorobenzoyl)piperazin-1-yl)methyl)-6-(thiazol-2-ylamino)isonicotinic acid] | 9.19 | 6.10 |
